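The compound was tested at five concentrations on cells cultured in 96-well plates, with a 48-hour exposure period. TGI denotes the concentration required for complete inhibition of growth.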
Columns and labels:
Test in all cases: DTP human tumour cell line panel, 48 h
RPMI-8226 leukemia = test system: RPMI-8226 leukemia
EKVX NSCLC = test system: EKVX NSCLC
TK-10 renal = test system: TK-10 renal
SN12C renal = test system: SN12C renal
HCT-15 colon = test system: HCT-15 colon
HT29 colon = test system: HT29 colon
OVCAR-3 ovarian = test system: OVCAR-3 ovarian
SF-295 CNS = test system: SF-295 CNS
SK-OV-3 ovarian = test system: SK-OV-3 ovarian
LOX IMVI melanoma = test system: LOX IMVI melanoma
KM20L2 colon = test system: KM20L2 colon
HOP-92 NSCLC = test system: HOP-92 NSCLC
SK-MEL-28 melanoma = test system: SK-MEL-28 melanoma
SW-620 colon = test system: SW-620 colon
OVCAR-8 ovarian = test system: OVCAR-8 ovarian
K-562 leukemia = test system: K-562 leukemia
A498 renal = test system: A498 renal
SF-539 CNS = test system: SF-539 CNS
OVCAR-4 ovarian = test system: OVCAR-4 ovarian
CAKI-1 renal = test system: CAKI-1 renal
COLO 205 colon = test system: COLO 205 colon
DMS 273 small cell lung = test system: DMS 273 small cell lung
HL-60(TB) leukemia = test system: HL-60(TB) leukemia
M14 melanoma = test system: M14 melanoma
RXF-631 renal = test system: RXF-631 renal
HCC-2998 colon = test system: HCC-2998 colon
SK-MEL-5 melanoma = test system: SK-MEL-5 melanoma
SNB-78 CNS = test system: SNB-78 CNS
786-0 renal = test system: 786-0 renal
HCT-116 colon = test system: HCT-116 colon
M19-MEL melanoma = test system: M19-MEL melanoma
ACHN renal = test system: ACHN renal
RXF 393 renal = test system: RXF 393 renal
U251 CNS = test system: U251 CNS
LXFL 529 NSCLC = test system: LXFL 529 NSCLC
XF 498 CNS = test system: XF 498 CNS
CCRF-CEM leukemia = test system: CCRF-CEM leukemia
UACC-62 melanoma = test system: UACC-62 melanoma
IGROV1 ovarian = test system: IGROV1 ovarian
SNB-75 CNS = test system: SNB-75 CNS
HOP-62 NSCLC = test system: HOP-62 NSCLC
SNB-19 CNS = test system: SNB-19 CNS
MOLT-4 leukemia = test system: MOLT-4 leukemia
HOP-18 NSCLC = test system: HOP-18 NSCLC
NCI-H460 lung = test system: NCI-H460 lung
DMS 114 small cell lung = test system: DMS 114 small cell lung
DLD-1 colon = test system: DLD-1 colon
NCI-H23 lung = test system: NCI-H23 lung
UACC-257 melanoma = test system: UACC-257 melanoma
A549 NSCLC = test system: A549 NSCLC
SF-268 CNS = test system: SF-268 CNS
OVCAR-5 ovarian = test system: OVCAR-5 ovarian
KM12 colon = test system: KM12 colon
MALME-3M melanoma = test system: MALME-3M melanoma
UO-31 renal = test system: UO-31 renal
SK-MEL-2 melanoma = test system: SK-MEL-2 melanoma

## Oc1ccc2occ3c2c1CCC3
RPMI-8226 leukemia
  TGI: > 100 µM
EKVX NSCLC
  TGI: > 100 µM
TK-10 renal
  TGI: > 100 µM
SN12C renal
  TGI: > 100 µM
HCT-15 colon
  TGI: > 100 µM
HT29 colon
  TGI: > 100 µM
OVCAR-3 ovarian
  TGI: > 100 µM
SF-295 CNS
  TGI: > 100 µM
SK-OV-3 ovarian
  TGI: > 100 µM
LOX IMVI melanoma
  TGI: > 100 µM
KM20L2 colon
  TGI: > 100 µM
HOP-92 NSCLC
  TGI: 80.1 µM
SK-MEL-28 melanoma
  TGI: > 100 µM
SW-620 colon
  TGI: > 100 µM
OVCAR-8 ovarian
  TGI: > 100 µM
K-562 leukemia
  TGI: > 100 µM
A498 renal
  TGI: > 100 µM
SF-539 CNS
  TGI: > 100 µM
OVCAR-4 ovarian
  TGI: > 100 µM
CAKI-1 renal
  TGI: > 100 µM
COLO 205 colon
  TGI: > 100 µM
DMS 273 small cell lung
  TGI: > 100 µM
HL-60(TB) leukemia
  TGI: > 100 µM
M14 melanoma
  TGI: > 100 µM
RXF-631 renal
  TGI: > 100 µM
HCC-2998 colon
  TGI: > 100 µM
SK-MEL-5 melanoma
  TGI: > 100 µM
SNB-78 CNS
  TGI: > 100 µM
786-0 renal
  TGI: > 100 µM
HCT-116 colon
  TGI: > 100 µM
M19-MEL melanoma
  TGI: > 100 µM
ACHN renal
  TGI: > 100 µM
RXF 393 renal
  TGI: > 100 µM
U251 CNS
  TGI: > 100 µM
LXFL 529 NSCLC
  TGI: > 100 µM
XF 498 CNS
  TGI: > 100 µM
CCRF-CEM leukemia
  TGI: > 100 µM
UACC-62 melanoma
  TGI: > 100 µM
IGROV1 ovarian
  TGI: > 100 µM
SNB-75 CNS
  TGI: > 100 µM
HOP-62 NSCLC
  TGI: > 100 µM
SNB-19 CNS
  TGI: > 100 µM
MOLT-4 leukemia
  TGI: > 100 µM
HOP-18 NSCLC
  TGI: > 100 µM
NCI-H460 lung
  TGI: > 100 µM
DMS 114 small cell lung
  TGI: > 100 µM
DLD-1 colon
  TGI: > 100 µM
NCI-H23 lung
  TGI: > 100 µM
UACC-257 melanoma
  TGI: > 100 µM
A549 NSCLC
  TGI: > 100 µM

## O=C(O)CNS(=O)(=O)c1ccc(NC(=O)c2ccc(F)cc2)cc1
RPMI-8226 leukemia
  TGI: > 100 µM
EKVX NSCLC
  TGI: > 100 µM
TK-10 renal
  TGI: > 100 µM
SN12C renal
  TGI: > 100 µM
HCT-15 colon
  TGI: > 100 µM
HT29 colon
  TGI: > 100 µM
OVCAR-3 ovarian
  TGI: > 100 µM
SF-295 CNS
  TGI: > 100 µM
SK-OV-3 ovarian
  TGI: > 100 µM
SF-268 CNS
  TGI: > 100 µM
LOX IMVI melanoma
  TGI: > 100 µM
OVCAR-5 ovarian
  TGI: > 100 µM
KM20L2 colon
  TGI: > 100 µM
HOP-92 NSCLC
  TGI: > 100 µM
SK-MEL-28 melanoma
  TGI: > 100 µM
SW-620 colon
  TGI: > 100 µM
OVCAR-8 ovarian
  TGI: > 100 µM
K-562 leukemia
  TGI: > 100 µM
A498 renal
  TGI: > 100 µM
SF-539 CNS
  TGI: > 100 µM
OVCAR-4 ovarian
  TGI: > 100 µM
KM12 colon
  TGI: > 100 µM
CAKI-1 renal
  TGI: > 100 µM
COLO 205 colon
  TGI: > 100 µM
DMS 273 small cell lung
  TGI: > 100 µM
HL-60(TB) leukemia
  TGI: > 100 µM
M14 melanoma
  TGI: > 100 µM
RXF-631 renal
  TGI: > 100 µM
HCC-2998 colon
  TGI: > 100 µM
SK-MEL-5 melanoma
  TGI: > 100 µM
MALME-3M melanoma
  TGI: > 100 µM
786-0 renal
  TGI: > 100 µM
M19-MEL melanoma
  TGI: > 100 µM
ACHN renal
  TGI: > 100 µM
RXF 393 renal
  TGI: > 100 µM
U251 CNS
  TGI: > 100 µM
LXFL 529 NSCLC
  TGI: > 100 µM
UO-31 renal
  TGI: > 100 µM
XF 498 CNS
  TGI: > 100 µM
CCRF-CEM leukemia
  TGI: > 100 µM
UACC-62 melanoma
  TGI: > 100 µM
IGROV1 ovarian
  TGI: > 100 µM
SNB-75 CNS
  TGI: > 100 µM
SNB-19 CNS
  TGI: > 100 µM
MOLT-4 leukemia
  TGI: > 100 µM
SK-MEL-2 melanoma
  TGI: > 100 µM
HOP-18 NSCLC
  TGI: > 100 µM
NCI-H460 lung
  TGI: > 100 µM
DLD-1 colon
  TGI: > 100 µM
NCI-H23 lung
  TGI: > 100 µM
UACC-257 melanoma
  TGI: > 100 µM
A549 NSCLC
  TGI: > 100 µM
